In patent US12383527B2, “Methods for treating triple negative breast cancer using salvianolic acid B” (HOWARD UNIVERSITY, priority 2018, dated 2025):

Legend:
cyclin B1 = assay: Western blot of cyclin B1 expression in MDA and MCF-7 cells; type: cell-based, human; details: Sal-B 50 μM and 100 μM, 24 hours
Description: The expression of two cell cycle-related proteins—cyclin A and cyclin B1—was checked by Western blot. The expression of cyclin A and cyclin B1 was normalized by the expression of the internal control β-actin (lower panel). The cells were treated with 50 μM and 100 μM Sal-B, respectively, for 24 hours. Doxorubicin (0.1 μM and 1 μM) was used as a control. […] The results may be explained by that the cell cycle progression is controlled by a large set of molecules, although cyclin B1 is a key component in the control of cell cycle progression from G2 to M phase.
The immunohistochemical results were consistent with those from Western blotting (FIG. 7, panel A). Western blot analysis was used to determine the expression of apoptosis-related proteins Bcl-XL, survivin, caspase-3 and caspase-8 (FIG. 7, panel A). β-actin was used as an internal control for Western blotting. The MCD-7 and MDA cells were treated with Sal-B (50 μM and 100 μM) and doxorubicin (0.1 μM and 1 μM), respectively, for 24 hours. Proteins were extracted from the cells with RIPA lysis buffer (Santa Cruz Biotechnology, Santa Cruz, CA) and the protein concentrations were quantified with Bio-Rad protein quantification kit. Whole-cell proteins were separated on 8% SDS-polyacrylamide gel, transferred to the polyvinylidene difluoride membrane (Bio-Rad), and then probed with the indicated primary antibodies overnight at 4° C. Washed blots were then incubated with horseradish peroxidase-conjugated anti-rabbit, anti-mouse, or anti-goat antibody (Santa Cruz Biotechnology), respectively, for one hour at room temperature. Blots were developed and visualized with ECL detection system (Bio-Rad).

ceramides = assay: Immunohistochemistry of ceramides in MDA tumor xenografts; type: in vivo, athymic nude mice; details: Sal-B 80 mg/kg three times per week; untreated control 2.3±0.7; P<0.05
Description: (§1) Human tumor xenografts in athymic nude mice. […] The animal protocol was approved by the Howard University Animal Care and Use Committee. Four-week-old female athymic nude mice (Nu/Nu) were obtained from Harlan Sprague Dawley (Indianapolis, IN). All mice were provided the Harlan Teklad #2018 Global 18% protein rodent diet and water ad libitum. Mice were housed in temperature-controlled rooms (74±2° F.) with a 12-hour alternating light-dark cycle. MDA cells (3×10^6/50 μL/spot) were subcutaneously injected into the both sides of lower back of mice using a 27-gauge needle. […]
Immunohistochemical staining was performed as described previously (Hao Y, et al., “Enforced expression of miR-101 inhibits prostate cancer cell growth by modulating the COX-2 pathway in vivo,” Cancer Prev Res (Phila), 2011; 4: 1073-1083). […] For the quantification, ten high-magnification (40×) fields were randomly selected from each slide of tumors and the positive cells were counted. The protein expression was expressed as the average number of positive cells per high magnification field. […]

MDA-MB-231 cells = assay: Luciferase assay (bioluminescent cell viability); type: cell-based, human
Description: (§2) Cell lines and culture. MCF-7 and MDA human breast cancer cell lines stably transfected with firefly luciferase gene were purchased from Caliper Life Sciences (Hanover, MD). MCF-7 cells were cultured in DMEM medium (Invitrogen, Carlsbad, CA) and MDA cells were grown in DMEM/F-12 (1:1) medium (Invitrogen). Both media were supplemented with 10% fetal bovine serum (Invitrogen) and antibiotic-antimycotic mixture (100 IU/ml penicillin and 100 μg/ml streptomycin; Cellgro). The cells were maintained at 37° C. in 5% CO2. All experiments were performed when the cells were in the logarithmic phase of growth. Luciferase assay. The MDA cell line and the hormone receptor-positive MCF-7 cell line were utilized to test the effectiveness of Sal-B and doxorubicin on cancer cell viability. Both cell lines had been stably transfected and expressed the firefly luciferase gene. The bioluminescent signal intensity reflects the cell metabolic activity, being highly correlated with the cell viability. Cell viability was evaluated using the sensitive bioluminescent optical imaging. The cells (10,000 per well) were seeded in flat-bottomed 96-well plates in the above-identified medium with 10% fetal bovine serum and allowed to grow overnight. The old medium was then replaced with fresh medium containing different concentrations of Sal-B (50, 100, 150, and 200 μM) or doxorubicin (0.1, 0.2, 0.5, and 1 μM). The cells were further cultured for 24 hours and D-luciferin was added to each well and mixed gently (final concentration of 150 μ/ml). The signal was measured with the Xenogen IVIS 200 imaging system (Caliper Life Sciences, Hopkinton, MA, USA). The system was equipped with a highly sensitive, cooled charge-coupled device (CCD) camera and a light-tight specimen box. Imaging and quantification of signals was controlled by the acquisition and analysis software Living Image 3.0. The bioluminescent signal from the cells in each well was expressed as total flux (photons per second (p/s)). At least five replicates were performed in each experiment, and each experiment was repeated at least three times. The representative data are presented.

MCF-7 cells = assay: Luciferase assay (bioluminescent cell viability); type: cell-based, human; details: Homo sapiens
Description: as §2

Bcl-xL = assay: Immunohistochemical staining of Bcl-xL in MDA tumor xenografts; type: in vivo, athymic nude mice; details: Sal-B 80 mg/kg three times per week; untreated tumors 11.8±3.0; P<0.05
Description: as §1
Immunohistochemical staining was performed as described previously (Hao Y, et al., “Enforced expression of miR-101 inhibits prostate cancer cell growth by modulating the COX-2 pathway in vivo,” Cancer Prev Res (Phila), 2011; 4: 1073-1083). […] For the quantification, ten high-magnification (40×) fields were randomly selected from each slide of tumors and the positive cells were counted. The protein expression was expressed as the average number of positive cells per high magnification field.

## O=C(/C=C/c1ccc(O)c2c1[C@H](C(=O)O[C@H](Cc1ccc(O)c(O)c1)C(=O)O)[C@@H](c1ccc(O)c(O)c1)O2)O[C@H](Cc1ccc(O)c(O)c1)C(=O)O [Sal-B, Salvianolic acid B]
Cyclin B1; MCF-7 cells
  cyclin B1 expression (normalized to β-actin): down-regulation
Cyclin B1; MDA cells
  cyclin B1 expression (normalized to β-actin): down-regulation
ceramides
  ceramide levels in tumor xenografts (ceramide positive cells counted): 9.6±2.4
MDA-MB-231 cells; Homo sapiens, MDA-MB-231, 24 h, read-out: cell viability compared with untreated cells
  viability at 100 µM: 69%
MDA-MB-231 cells; Homo sapiens, MDA-MB-231, MDA cells, 24 hours, read-out: half maximal inhibitory concentration (IC50), cell viability
  IC50: 125 µM
MDA-MB-231 cells; Sal-B 50-200 μM, 24 hours
  difference in inhibitory effect on cell viability between MDA and MCF-7 cells: No significant difference
MCF-7 cells; MCF7, 24 h, read-out: cell viability compared with untreated cells
  viability at 100 µM: 65%
MCF-7 cells; MCF7, MCF-7 cells, 24 hours, read-out: half maximal inhibitory concentration (IC50), cell viability
  IC50: 120 µM
Bcl-xL
  expression of Bcl-xL in tumors: 1.3±0.4 positive cells per high magnif
